{"source": "paper PMC10805800", "about": "(Cell Discovery, 2024)", "assay_type_in_all_cases": "binding", "key": {"[1]": {"target": "T1, LRRK2 (Leucine-rich repeat kinase 2) (Homo sapiens, UniProt Q5S007)", "T1 construct": "full-length LRRK2", "assay": "cryo-EM structure at […] Å; also ADP-Glo kinase inhibition (RCKWm)"}, "[2]": {"target": "T2, LRRK2 (Leucine-rich repeat kinase 2) (Homo sapiens, UniProt Q5S007, M1732R)", "T2 construct": "LRRK2^RCKWm (ROC-COR-KIN-WD40, without ARM-ANK-LRR domains)", "T2 sequence (Q5S007 1327-2527 M1732R)": "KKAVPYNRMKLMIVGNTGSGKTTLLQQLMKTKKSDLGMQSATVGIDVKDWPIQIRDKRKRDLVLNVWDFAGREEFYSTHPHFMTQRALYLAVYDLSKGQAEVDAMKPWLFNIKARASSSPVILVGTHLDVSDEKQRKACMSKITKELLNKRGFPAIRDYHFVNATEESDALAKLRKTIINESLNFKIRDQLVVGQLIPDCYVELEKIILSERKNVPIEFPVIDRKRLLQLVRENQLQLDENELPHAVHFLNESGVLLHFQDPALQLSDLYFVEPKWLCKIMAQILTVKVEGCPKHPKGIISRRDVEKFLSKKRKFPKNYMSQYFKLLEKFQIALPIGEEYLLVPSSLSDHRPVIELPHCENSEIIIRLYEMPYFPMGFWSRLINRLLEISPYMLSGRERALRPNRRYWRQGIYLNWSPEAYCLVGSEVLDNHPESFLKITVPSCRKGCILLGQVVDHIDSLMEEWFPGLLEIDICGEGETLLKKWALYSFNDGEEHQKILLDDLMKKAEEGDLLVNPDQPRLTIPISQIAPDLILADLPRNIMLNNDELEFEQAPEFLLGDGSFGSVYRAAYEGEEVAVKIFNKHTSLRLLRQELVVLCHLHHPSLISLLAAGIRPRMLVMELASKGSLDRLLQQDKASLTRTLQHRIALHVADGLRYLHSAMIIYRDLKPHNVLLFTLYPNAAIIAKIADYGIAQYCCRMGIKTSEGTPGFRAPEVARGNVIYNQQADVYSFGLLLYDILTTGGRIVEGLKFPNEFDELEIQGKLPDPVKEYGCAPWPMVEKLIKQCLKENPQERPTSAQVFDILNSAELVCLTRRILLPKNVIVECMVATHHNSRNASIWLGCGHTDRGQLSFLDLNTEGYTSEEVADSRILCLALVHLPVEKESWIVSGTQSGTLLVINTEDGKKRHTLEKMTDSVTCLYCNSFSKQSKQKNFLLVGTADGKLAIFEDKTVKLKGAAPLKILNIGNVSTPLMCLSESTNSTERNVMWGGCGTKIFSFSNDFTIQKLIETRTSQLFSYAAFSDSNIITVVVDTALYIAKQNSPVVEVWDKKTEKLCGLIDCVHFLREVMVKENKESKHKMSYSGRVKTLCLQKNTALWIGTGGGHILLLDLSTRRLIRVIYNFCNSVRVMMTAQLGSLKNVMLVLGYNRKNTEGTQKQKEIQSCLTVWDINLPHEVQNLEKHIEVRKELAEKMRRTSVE", "assay": "cryo-EM structure at […] Å; also ADP-Glo kinase inhibition"}, "[3]": {"target": "T1, LRRK2 (Leucine-rich repeat kinase 2)", "assay": "cryo-EM structure at […] Å; also ADP-Glo kinase inhibition (RCKWm)", "remark": "listed apart in the source"}}}
{"smiles": "Cc1ccc(C(=O)Nc2ccc(CN3CCN(C)CC3)c(C(F)(F)F)c2)cc1C#Cc1cnc2[nH]ncc2c1", "note": "[GZD-824]", "values": [{"measurement": "cryo-EM structure at 3.6 Å; also ADP-Glo kinase inhibition (RCKWm)", "setting": "[1]", "result": "GZD-824 and ponatinib are analogous compounds and bind to LRRK2 in a similar manner"}]}
{"smiles": "COc1cc(C(=O)N2CCC(N3CCN(C)CC3)CC2)ccc1Nc1ncc2c(n1)N(C)c1ccccc1C(=O)N2C", "note": "[LRRK2-IN-1]", "values": [{"measurement": "cryo-EM structure at 3.5 Å; also ADP-Glo kinase inhibition", "setting": "[2]", "result": "8U7H (LRRK2^RCKWm–GNE-7915) and 8FO7 (LRRK2^RCKWm–LRRK2-IN-1)"}]}
{"smiles": "CNC(=O)c1cc(Oc2ccc(NC(=O)Nc3cc(C(C)(C)C)nn3-c3ccc4ncccc4c3)c(F)c2)ccn1", "note": "[rebastinib]", "values": [{"measurement": "cryo-EM structure at 3.7 Å; also ADP-Glo kinase inhibition (RCKWm)", "setting": "[3]", "result": "8U8B (LRRK2–rebastinib), 8U8A (LRRK2–ponatinib), 8U7L (LRRK2–GZD-824)"}]}
